# Legend:
# [1] = tested on: patients with stable CAD; assay: Randomized open-label blinded-endpoint phase 4 trial, pitavastatin 4 mg/day vs 1 mg/day (Example 1); assay type: in vivo, human (Japanese patients)
# Experimental: This study was a prospective, multicenter, randomized, open-label, blinded-endpoint, physician-initiated phase 4 trial designed to investigate whether high-dose statin therapy could reduce CV events in patients with stable CAD as compared with low-dose statin therapy. We hypothesized that aggressive lipid lowering treatment with pitavastatin 4 mg/day would reduce the incidence of the composite endpoint comprised of CV death, non-fatal myocardial infarction (MI), non-fatal ischemic stroke, and unstable angina requiring emergency hospitalization. The control group received pitavastatin 1 mg/day.
# Men and women aged 20 to 80 years with clinically evident stable CAD and elevated LDL-C were eligible for this study. CAD was defined as 1) previous ACS, such as acute myocardial infarction or unstable angina; 2) a previous coronary revascularization procedure (PCI or coronary artery bypass grafting (“CABG”)); or 3) atherosclerotic CAD detected by coronary artery angiography with at least 75% stenosis in major epicardial coronary arteries (American Heart Association classification). (30) Patients with elevated LDL-C at entry were defined as (1) patients not receiving chronic lipid-lowering therapy with LDL-C≥140 mg/dL, (2) patients with LDL-C≥100 mg/dL and considered by the attending physician to need lipid-lowering therapy, or (3) patients being treated with lipid-lowering therapy.
# Exclusion criteria included (1) any planned coronary revascularization procedure, (2) active malignancy, (3) contraindication for pitavastatin (hypersensitivity to pitavastatin, severe liver disease or hepatic dysfunction, concurrent cyclosporine use, or suspected or confirmed pregnancy or current breastfeeding), (4) severe congestive heart failure (ejection fraction <30% or NYHA class ≥3), (5) current hemodialysis, (6) familial hypercholesterolemia, (7) current participation in another clinical trial, (8) current use of any prohibited drug (lipid-lowering drug other than pitavastatin) that could not be discontinued during the study, and (9) any other finding that would make the patient unsuitable for this study in the opinion of the investigators.
# Participants were recruited at 733 hospitals in Japan. During screening visits, informed consent and baseline medical history were obtained, and a clinical examination and laboratory testing were performed. Blood samples were collected to determine fasting lipid levels and the patient's standard clinical profile. After discontinuation of all previous lipid-lowering therapies, all eligible patients started receiving treatment with pitavastatin 1 mg/day on an open-label basis for at least 1 month (run-in period). At the end of the run-in period (week 0), those patients with LDL-C levels below 120 mg/dL, measured by a central laboratory using Friedwald's formula, were eligible for randomization. Patients with prior ACS or coronary revascularization could be randomized beyond 3 months after the index event. Randomization was not allowed for patients with poor adherence (less than 50%) for the study drug during the run-in period or for patients with the primary endpoint events during the run-in period.
# Patients were randomized in a 1:1 ratio to either pitavastatin 4 mg or pitavastatin 1 mg once daily. Randomized treatment assignment was stratified by 5 factors: 1) institution, 2) prior statin use, 3) age (<65 or ≤65), 4) diabetes, and 5) sex. Patients were to be followed for 3 years, and study visits were scheduled at 6 months for the first visit and every year thereafter. At each visit, information on vital signs, clinical endpoints, adverse events, and concurrent medication was collected. In addition, physical examinations and electrocardiograms were performed and blood specimens were collected at 6 months and every 12 months thereafter for lipid and other laboratory tests. […]
# [2] = 4 mg of pitavastatin; cited from earlier work
structure (smiles),measurement,setting,value
O=C(O)C[C@H](O)C[C@H](O)/C=C/c1c(C2CC2)nc2ccccc2c1-c1ccc(F)cc1 [pitavastatin],"incidence rates of individual CV events: death from any cause, myocardial infarction, and coronary revascularization","[1]; 1 mg and 4 mg pitavastatin groups, FIG. 8",positive
same,LDL-C,"[1]; patients converted from 1 mg dose to 4 mg dose of pitavastatin, FIG. 2",statistically significant reduction
same,HDL-C,"[1]; patients converted from 1 mg dose to 4 mg dose of pitavastatin, FIG. 3",numerically superior increase
same,TG,"[1]; patients converted from 1 mg dose to 4 mg dose of pitavastatin, FIG. 4",statistically significant reduction
same,hs-CGP,"[1]; patients converted from 1 mg dose to 4 mg dose of pitavastatin, FIG. 5",statistically significant reduction
same,"primary clinical endpoint (composite of CV death, MI, ischemic stroke and UA)","[1]; patients converted from 1 mg dose to 4 mg dose of pitavastatin, FIG. 6",statistically significant reduction
same,secondary clinical endpoint (primary endpoint+coronary revascularization),"[1]; patients converted from 1 mg dose to 4 mg dose of pitavastatin, FIG. 7",statistically significant reduction
same,effect of LDL-C status (≥95 mg/dL or <95 mg/dL) on incidence rates for the primary endpoint,"[1]; subgroup analysis, 1 mg vs 4 mg pitavastatin, FIG. 9",did not affect the results
same,reduction of LDL-C from baseline,[2],42.9%
